Molecular target: T1, Activin receptor type-1 [172-499,R206H] (Homo sapiens, UniProt Q04771, R206H)
T1 construct: 172-499
Assay: In Vitro Enzyme Inhibition Using a Biochemical Peptide Phosphorylation Assay- Caliper Assay

T1 sequence (Q04771 172-499 R206H): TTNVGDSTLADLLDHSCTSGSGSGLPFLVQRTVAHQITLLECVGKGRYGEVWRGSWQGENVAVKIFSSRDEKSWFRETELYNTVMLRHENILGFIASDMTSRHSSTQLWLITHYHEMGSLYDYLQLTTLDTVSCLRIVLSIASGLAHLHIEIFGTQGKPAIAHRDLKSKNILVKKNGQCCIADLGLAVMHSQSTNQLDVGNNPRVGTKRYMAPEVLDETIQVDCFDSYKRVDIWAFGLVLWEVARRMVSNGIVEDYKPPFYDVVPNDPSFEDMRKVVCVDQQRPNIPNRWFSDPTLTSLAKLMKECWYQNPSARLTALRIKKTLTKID

Q: `CC(C)CN1c2ccc(-c3cncc(-c4ccc(=O)n(C(C)C)c4)c3)cc2CS1(=O)=O` [US11160797, Example 50] was tested. Which IC50 did it give?
A: 140 nM
